# Patent US11186612B2, “Substance P analog having progenitor cell or stem cell recruiting activity and method for progenitor cell or stem cell recruiting using the same” (AJOU UNIVERSITY INDUSTRY-ACADEMIC COOPERATION FOUNDATION, priority 2019, dated 2021)
# Where no end group is shown, it is not given here.
# What was measured:
# [1] = system: human-derived MSCs (hMSCs); assay: In vivo migration of ICG-labeled hMSCs to injected Cx-HA hydrogel containing SP or SP1 (NIR fluorescence imaging); set-up: species or system nude mouse; conditions: for fluorescence (recruited hMSC) at injected site: NIR-labeled Cx-HA hydrogel with 1 μg/mL peptide injected in one side of nude mouse, hMSCs via caudal vein, control Cx-HA no fluorescence
# Description: Each of the NIR-HA-TET and NIR-HA-TCO, which were prepared in Example 3-1, was dissolved in 2% physiological saline to have a volume of 20 mg/mL, thereby preparing an aqueous solution, and 1 μg/mL of SP having an amino acid sequence of SEQ ID NO: 1 or SP1 having an amino acid sequence of SEQ ID NO: 2 was added to each solution. After 1-hour stirring, a hyaluronic acid hydrogel solution containing a stem cell recruiting factor was obtained by mixing the mixed solution prepared by stirring each of the solutions using a dual syringe.
# NIR-labeled Cx-HA was injected into one side of a nude mouse, and NIR-labeled Cx-HA containing a stem cell recruiting factor was injected into the other side thereof, as shown in Table 3.
# To visually confirm the extent of stem cell recruiting of SP1 in the present invention, hMCSs were labeled with indocyanine green and injected into a mouse caudal vein.
# First, an indocyanine green (ICG) solution was prepared by dissolving 2 mg of ICG in 200 μL of DMSO, and mixing the resulting solution with 800 μL of a culture medium (DMEM (low-glucose)+10% FBS+1% penicillin-streptomycin). 10 μL of a 10 mg/mL protamine solution, 600 μL of the ICG solution and 600 μL of MEM-α were mixed, and gently stirred for 5 minutes. Afterward, the medium was removed from the flask in which hMSCs were cultured, replaced with 10 mL of a serum-free DMEM (low-glucose) medium, and then incubated for 1 hour at 37° C. under a 5% CO2 condition by adding a protamine/ICG solution.
# Subsequently, the medium was removed, and the cells were washed with 10 mL PBS and treated with trypsin, thereby obtaining hMSCs. The hMSCs were prepared to be 1×10^6 cells/100 μL, and […] was injected into the caudal veins of nude mice using a […] syringe (FIG. 3). NIR fluorescence imaging was performed at a predetermined time using FOBI (NeoScience, Suwon, Korea) at 730 nm under conditions of an exposure of 2000 ms and a gain of 5.
# To confirm the extent of promotion of in vivo hMSC migration by SP1 in the present invention, the hMSC-injected nude mice prepared in Example 4 were subjected to NIR fluorescence imaging using FOBI (NeoScience, Suwon, Korea) at 730 nm under conditions of an exposure of 2000 ms and a gain of 5.
# [2] = system: human-derived MSCs (hMSCs); assay: Stem cell migration evaluation ex vivo (24-well Transwell plate, PKH 26-labeled hMSCs); type: cell-based; conditions: 1 μg/mL in DMEM + 1% FBS in bottom well, FIG. 2; for stem cell migration compared with the control: hMSCs in upper chamber
# Description: In the present invention, to compare the stem cell recruiting activities of SP and the SP1 of the present invention, stem cell migration was evaluated in an ex vivo environment.
# First, human-derived MSCs (hMSCs) were labeled with a PKH 26 dye (Sigma, USA), and 5×10^4 cells were put into an upper chamber (8.0 μm pore size) of a 24-well Transwell plate (SPL, Korea). After the hMSCs were cultured in the upper chamber for 48 hours using a serum-free DMEM (Gibco, USA), a medium prepared under the following conditions in Table 2 was added into a bottom well, and then the medium was replaced with a fresh one every third day, followed by observing hMSCs in the bottom well using a fluorescence microscope.
sequence,measurement,setting,value
RISPQQRDALA (SP1),stem cell recruiting activity maintenance time,"[1]; Cx-HA hydrogel 1 μg/mL peptide, nude mouse, FIG. 6, compared with conventional SP",longer
same,"stem cell recruiting activity, comparing FIGS. 4 (SP) and 5 (SP1)","[1]; Cx-HA hydrogel 1 μg/mL peptide, nude mouse, NIR imaging over time, compared with SP",higher stem cell recruiting activity
same,"amount of stem cells moved to the injected site, quantified (FIG. 6): stem cell recruiting activity","[1]; Cx-HA hydrogel 1 μg/mL peptide, nude mouse, compared with conventional SP",higher stem cell recruiting activity
same,fluorescence (recruited hMSC) at injected site,[1],fluorescence was observed
same,number of moved stem cells compared with the SP-treated group,[2],high
same,stem cell migration compared with the control,[2],stem cells moved
"RPKPQQFFGLM (RPKPQQFFGLM-NH2) [SP, neuropeptide of 11 amino acids (Arg-Pro-Lys-Pro-Gln-Gln-Phe-Phe-Gly-Leu-Met-NH2), endogenous NKR1 ligand, reference compound]",fluorescence (recruited hMSC) at injected site,[1],fluorescence was observed
same,stem cell migration compared with the control,[2],stem cells moved
